Holding throughout (assay): MIC determination, broth microdilution
What all share (assay type): cell-based
On the technique in general: Dilution methods test growth across graded concentrations, often in twofold steps.

The subject of one assay is E. cloacae 700323. To be noted: Enterobacter cloacae, 37° C., 18-24 hours, read-out: Strain 6 MIC. Here is the method:
(§1) Compounds of this invention were tested for antimicrobial activity by determining minimum inhibitory concentrations (MICs, in μg/mL) using the broth microdilution method according to the guidelines of the Clinical Laboratories and Standards Institute (“Methods for Dilution Antimicrobial Susceptibility Tests for Bacteria that Grow Aerobically”, Approved standard, 7th ed., Clinical and Laboratory Standards Institute (CLSI) Document M7-A8, Wayne, Pa., USA, 2009.). Test compounds were dissolved in DMSO. The compounds were then diluted in microbial growth medium (Mueller Hinton Broth II, cation adjusted) resulting in a final concentration range of 0.063-64 μg/mL in serial two-fold dilution. In all cases the final DMSO concentration was less than 0.5%. Bacteria were added to 96-well microtitre plates containing the two-fold dilutions of the compounds; the final cell density was approximately 5×10^5 colony forming units/mL (CFU/mL). Plates were incubated at 37° C. for 18-24 hours and read visually. The MIC, i.e. the lowest concentration of the test compound that inhibited visible growth of the bacteria, was recorded. The same assay conditions were used when the compounds of this invention were tested in combination with—lactamase inhibitors. While the compounds of this invention were serially diluted as described above, a constant concentration of the inhibitor of 4 mg/L was used. Bacterial strains that were used to evaluate the antimicrobial activity using the MIC determination included but were not limited to E. coli clinical isolate, E. coli 8739, K. pneumoniae clinical isolate, K. pneumoniae 700603, E. cloacae clinical isolate, E. cloacae 700323, A. baumannii clinical isolate, A. baumannii 19606, P. aeruginosa clinical isolate, P. aeruginosa 9027.

The test system of assay [1] is A. baumannii clinical isolate. To be noted: Acinetobacter baumannii, 37° C., 18-24 hours, read-out: Strain 7 MIC. Here is the method:
as §1

Assay [2] has as its system E. cloacae clinical isolate. The following applies: Enterobacter cloacae, 37° C., 18-24 hours, read-out: Strain5 MIC. Here is the method:
as §1

The test system of another assay is P. aeruginosa 9027. The following applies: Pseudomonas aeruginosa, 37° C., 18-24 hours, read-out: Strain 10 MIC. Here is the method:
as §1

A further assay concerns E. coli clinical isolate. The following applies: Escherichia coli, 37° C., 18-24 hours, read-out: Strain 1 MIC. Here is the method: as §1
A further assay deals with A. baumannii 19606. The following applies: Acinetobacter baumannii, 37° C., 18-24 hours, read-out: Strain8 MIC. Here is the method: as §1
The test system of a further assay is K. pneumoniae 700603. The following applies: Klebsiella pneumoniae, 37° C., 18-24 hours, read-out: Strain 4 MIC. On the procedure:
as §1

The next assay concerns E. coli 8739. The following applies: Escherichia coli, 37° C., 18-24 hours, read-out: Strain 2 MIC. On the procedure: as §1
In assay [3] the test system is P. aeruginosa clinical isolate. To be noted: Pseudomonas aeruginosa, 37° C., 18-24 hours, read-out: Strain 9 MIC. Here is the method:
as §1

In assay [4] the test system is K. pneumoniae clinical isolate. The following applies: Klebsiella pneumoniae, 37° C., 18-24 hours, read-out: Strain 3 MIC. On the procedure:
as §1

This is an account of results in patent US20230295149A1, “MONOBACTAM COMPOUNDS, THEIR PREPARATION AND USE AS ANTIBACTERIAL AGENTS” (NINGXIA ACADEMY OF AGRICULTURE AND FORESTRY SCIENCES, priority 2020, published 2023).

The structures appear in SMILES notation.

For the compound `C[C@H]1[C@H](NC(=O)/C(=N\OC(C)(C)C(=O)O)c2csc(N)n2)C(=O)N1S(=O)(=O)O` [AZT, Aztreonam, reference compound], the minimum inhibitory concentration (MIC) in the assay with E. cloacae 700323 was over 64 µg/mL; in assay [1] it was over 64 µg/mL; in assay [2], over 64 µg/mL; in the assay on P. aeruginosa 9027 it was 16 µg/mL; in the assay with E. coli clinical isolate, over 64 µg/mL; with A. baumannii 19606, 32 µg/mL. Moreover, the MIC is 64 µg/mL in the assay on K. pneumoniae 700603, 16 µg/mL in the assay with E. coli 8739, over 64 µg/mL in assay [3] and 64 µg/mL in assay [4].

`CC(C)(O/N=C(\C(=O)N[C@@H]1C(=O)N2C(C(=O)[O-])=C(C[n+]3ccccc3)CS[C@H]12)c1csc(N)n1)C(=O)O` [CAZ, Ceftazidime, reference compound]: the minimal inhibitory concentration (MIC) (in the assay with E. cloacae 700323; in assay [1]; in [2]; in the assay on P. aeruginosa 9027; in the assay with E. coli clinical isolate; with A. baumannii 19606) was over 64 µg/mL in each case. The MIC (in the assay with K. pneumoniae 700603; in the assay with E. coli 8739; in assay [3]; in assay [4]) was over 64 µg/mL throughout.

Consider `CC1(C)[C@H](NC(=O)/C(=N\O[C@@H](COc2ccc(C(=N)NC3CCNCC3)cc2)C(=O)O)c2nc(N)sc2Cl)C(=O)N1OS(=O)(=O)O` [Example 1, (S)-2-((((Z)-1-(2-Amino-5-chlorothiazol-4-yl)-2-(((S)-2,2-dimethyl-4-oxo-1-(sulfooxy)azetidin-3-yl)amino)-2-oxoethylidene)amino)oxy)-3-(4-(N-(piperidin-4-yl)carbamimidoyl)phenoxy)propanoic acid], for which the MIC turned out to be 8 µg/mL in the assay with E. cloacae 700323; 16 µg/mL in [1]; 8 µg/mL in assay [2]; 2 µg/mL with P. aeruginosa 9027; 8 µg/mL in the assay with E. coli clinical isolate; 8 µg/mL in the assay on A. baumannii 19606. The MIC in the assay with K. pneumoniae 700603 was found to be 8 µg/mL; in the assay with E. coli 8739, 1 µg/mL; in [3] it was 2 µg/mL; in [4], 4 µg/mL.

In the case of `CC1(C)[C@H](NC(=O)/C(=N\O[C@@H](COc2ccc(C(=N)NC3CCNCC3)cc2)C(=O)O)c2nsc(N)n2)C(=O)N1OS(=O)(=O)O` [Example 2, (S)-2-((((Z)-1-(5-Amino-1,2,4-thiadiazol-3-yl)-2-(((S)-2,2-dimethyl-4-oxo-1-(sulfooxy)azetidin-3-yl)amino)-2-oxoethylidene)amino)oxy)-3-(4-(N-(piperidin-4-yl)carbamimidoyl)phenoxy)propanoic acid], the MIC with E. cloacae 700323 turned out to be 64 µg/mL; in assay [1], 8 µg/mL; in assay [2], 8 µg/mL; with P. aeruginosa 9027, 1 µg/mL; in the assay with E. coli clinical isolate it was 0.5 µg/mL; in the assay with A. baumannii 19606 it was 32 µg/mL. Also, the minimal inhibitory concentration (MIC) in the assay with K. pneumoniae 700603 was 64 µg/mL; in the assay on E. coli 8739 it was 0.125 µg/mL; in assay [3] it was 1 µg/mL; in assay [4], 16 µg/mL.

As to `CC1(C)[C@H](NC(=O)/C(=N\O[C@@H](COc2ccc(C(=N)N[C@@H]3CCCNC3)cc2)C(=O)O)c2nc(N)sc2Cl)C(=O)N1OS(=O)(=O)O` [Example 3, (S)-2-((((Z)-1-(2-Amino-5-chlorothiazol-4-yl)-2-(((S)-2,2-dimethyl-4-oxo-1-(sulfooxy)azetidin-3-yl)amino)-2-oxoethylidene)amino)oxy)-3-(4-(N—((R)-piperidin-3-yl)carbamimidoyl)phenoxy)propanoic acid], the minimum inhibitory concentration (MIC) with E. cloacae 700323 was found to be 8 µg/mL; in [1], 16 µg/mL; in [2], 8 µg/mL; in the assay with P. aeruginosa 9027 it was 1 µg/mL; with E. coli clinical isolate, 2 µg/mL; in the assay on A. baumannii 19606, 8 µg/mL. Further, the minimum inhibitory concentration (MIC) was determined as 8 µg/mL in the assay with K. pneumoniae 700603, 0.5 µg/mL in the assay with E. coli 8739, 4 µg/mL in assay [3] and 2 µg/mL in [4].

`CC1(C)[C@H](NC(=O)/C(=N\O[C@@H](COc2ccc(C(=N)N[C@@H]3CCCNC3)cc2)C(=O)O)c2nsc(N)n2)C(=O)N1OS(=O)(=O)O` [Example 4, (S)-2-((((Z)-1-(5-Amino-1,2,4-thiadiazol-3-yl)-2-(((S)-2,2-dimethyl-4-oxo-1-(sulfooxy)azetidin-3-yl)amino)-2-oxoethylidene)amino)oxy)-3-(4-(N—((R)-piperidin-3-yl)carbamimidoyl)phenoxy)propanoic acid]: the MIC turned out to be 64 µg/mL in the assay on E. cloacae 700323; 8 µg/mL in [1]; 16 µg/mL in [2]; 1 µg/mL with P. aeruginosa 9027; 0.25 µg/mL in the assay on E. coli clinical isolate; 16 µg/mL in the assay with A. baumannii 19606. The MIC with K. pneumoniae 700603 came to 64 µg/mL; with E. coli 8739 it was 0.25 µg/mL; in assay [3] it was 2 µg/mL; in [4] it was 8 µg/mL.

With `CC1(C)[C@H](NC(=O)/C(=N\O[C@@H](COc2ccc(C(=N)N[C@H]3CCNC3)cc2)C(=O)O)c2nc(N)sc2Cl)C(=O)N1OS(=O)(=O)O` [Example 5, (S)-2-((((Z)-1-(2-Amino-5-chlorothiazol-4-yl)-2-(((S)-2,2-dimethyl-4-oxo-1-(sulfooxy)azetidin-3-yl)amino)-2-oxoethylidene)amino)oxy)-3-(4-(N—((S)-pyrrolidin-3-yl)carbamimidoyl)phenoxy)propanoic acid], the minimal inhibitory concentration (MIC) with E. cloacae 700323 turned out to be 4 µg/mL; in assay [1] it was 8 µg/mL; in assay [2], 2 µg/mL; with P. aeruginosa 9027 it was 0.5 µg/mL; with E. coli clinical isolate, 0.25 µg/mL; in the assay with A. baumannii 19606, 4 µg/mL. Besides, the MIC with K. pneumoniae 700603 turned out to be 4 µg/mL; in the assay with E. coli 8739, 0.25 µg/mL; in [3] it was 1 µg/mL; in assay [4], 1 µg/mL.

Take `CC1(C)[C@H](NC(=O)/C(=N\O[C@@H](COc2ccc(C(=N)N[C@H]3CCNC3)cc2)C(=O)O)c2nsc(N)n2)C(=O)N1OS(=O)(=O)O` [Example 6, (S)-2-((((Z)-1-(5-Amino-1,2,4-thiadiazol-3-yl)-2-(((S)-2,2-dimethyl-4-oxo-1-(sulfooxy)azetidin-3-yl)amino)-2-oxoethylidene)amino)oxy)-3-(4-(N—((S)-pyrrolidin-3-yl)carbamimidoyl)phenoxy)propanoic acid]: the minimal inhibitory concentration (MIC) with E. cloacae 700323 was determined as 32 µg/mL; in [1], 4 µg/mL; in assay [2] it was 4 µg/mL; in the assay with P. aeruginosa 9027, 0.5 µg/mL; in the assay on E. coli clinical isolate it was 0.5 µg/mL; in the assay on A. baumannii 19606 it was 16 µg/mL. Besides, the MIC in the assay with K. pneumoniae 700603 amounted to 64 µg/mL; in the assay on E. coli 8739, 0.125 µg/mL; in [3], 2 µg/mL; in assay [4], 1 µg/mL.

With `CC1(C)[C@H](NC(=O)/C(=N\O[C@@H](COc2ccc(C(=N)NC3CNC3)cc2)C(=O)O)c2nsc(N)n2)C(=O)N1OS(=O)(=O)O` [Example 7, (S)-2-((((Z)-1-(5-Amino-1,2,4-thiadiazol-3-yl)-2-(((S)-2,2-dimethyl-4-oxo-1-(sulfooxy)azetidin-3-yl)amino)-2-oxoethylidene)amino)oxy)-3-(4-(N-(azetidin-3-yl)carbamimidoyl)phenoxy)propanoic acid], the MIC in the assay on E. cloacae 700323 worked out at 16 µg/mL; in [1] it was 4 µg/mL; in [2], 8 µg/mL; in the assay with P. aeruginosa 9027, 0.5 µg/mL; in the assay on E. coli clinical isolate it was 0.125 µg/mL; in the assay with A. baumannii 19606, 8 µg/mL. The MIC in the assay with K. pneumoniae 700603 is 32 µg/mL; in the assay with E. coli 8739 it was 0.25 µg/mL; in [3], 0.5 µg/mL; in [4], 2 µg/mL.

In the case of `CC1(C)[C@H](NC(=O)/C(=N\O[C@@H](COc2ccc(C(=N)NC3CNC3)cc2)C(=O)O)c2nc(N)sc2Cl)C(=O)N1OS(=O)(=O)O` [Example 8, (S)-2-((((Z)-1-(2-Amino-5-chlorothiazol-4-yl)-2-(((S)-2,2-dimethyl-4-oxo-1-(sulfooxy)azetidin-3-yl)amino)-2-oxoethylidene)amino)oxy)-3-(4-(N-(azetidin-3-yl)carbamimidoyl)phenoxy)propanoic acid], the minimal inhibitory concentration (MIC) came out at 8 µg/mL in the assay on E. cloacae 700323; 8 µg/mL in [1]; 8 µg/mL in [2]; 1 µg/mL in the assay on P. aeruginosa 9027; 0.5 µg/mL in the assay with E. coli clinical isolate; 4 µg/mL in the assay with A. baumannii 19606. In addition, the MIC stood at 8 µg/mL with K. pneumoniae 700603, 0.25 µg/mL in the assay with E. coli 8739, 1 µg/mL in assay [3] and 8 µg/mL in assay [4].

In general, MIC refers to the lowest concentration found to suppress growth.
